The test system of test [1] is SB.msgc-1. Description: viability at highest tested concentration (MAXR) relative to DMSO; higher = less cytotoxic. The note with it: SB.msgc-1 (sporadic gastric cancer). In outline:
(§1)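 Gastric cancer cells derived from hereditary or sporadic patients were treated for 48 h with compound at 11 threefold dilutions, with the top concentration recorded per compound. Viability was then read by CellTiter-Glo luminescence. Data are viability normalised to DMSO, at the highest concentration or as trapezoidal area under the curve.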

In test [2] the test system is SB.mhdgc-1. The test is described as above. The note with it: SB.mhdgc-1 (hereditary c.1380delA CDH1 gastric cancer). The essentials: as §1
For test [3], the system named is SB.msgc-1. The test can be described thus: area under the dose-response curve of % viability (trapezoidal, 11 doses) (% viability x log10 concentration); higher = less cytotoxic. As to conditions: SB.msgc-1 (sporadic gastric cancer). In outline:
as §1

For test [4], the system named is SB.mhdgc-1. The test is described as above. The note with it: SB.mhdgc-1 (hereditary c.1380delA CDH1 gastric cancer). In outline:
as §1

Where a name gives a salt, the structure may show the parent alone.

As a reminder, the viability is a read-out of living cells in per cent, often relative to untreated cells. As to `CC1(C)O[C@H]2CC(=O)OC[C@]23[C@H]2CC[C@@]4(C)[C@H](c5ccoc5)OC(=O)[C@H]5O[C@]54[C@]2(C)C(=O)C[C@@H]13` [Limonin] (top concentration 46.0829 µM), the viability in test [1] turned out to be 128%; in test [2], 120%. The “area under the dose-response curve” value was found to be 570 in test [3] and 598 in test [4].
The corresponding values for `CC#CCn1c(N2CCC[C@@H](N)C2)nc2c1c(=O)n(Cc1nc(C)c3ccccc3n1)c(=O)n2C` [Linagliptin] (top concentration 46.0829 µM) are 77.9%, 57.7%, 528 and 564.
With `CCC[C@@H]1C[C@@H](C(=O)N[C@@H]([C@H]2O[C@H](SC)[C@H](O)[C@@H](O)[C@H]2O)[C@@H](C)O)N(C)C1.Cl` [Lincomycin  hydrochloride] (top concentration 46.0829 µM), the viability in test [1] was found to be 94%; in test [2], 85.3%. Further, the entries for the “area under the dose-response curve” value in test [3] and in test [4] were 548 and 525, respectively.
Consider `CC(=O)NC[C@H]1CN(c2ccc(N3CCOCC3)c(F)c2)C(=O)O1` [Linezolid] (top concentration 46.0829 µM), for which the viability in test [1] worked out at 101%; in test [2] it was 108%. The “area under the dose-response curve” value was 565 in test [3] and 596 in test [4].
With `Cc1ccc(F)c(NC(=O)Nc2ccc(-c3cccc4[nH]nc(N)c34)cc2)c1` [Linifanib] (top concentration 46.0829 µM), the figures for the viability in test [1] and in test [2] were 26.4% and 18.9%, respectively. The “area under the dose-response curve” value came to 498 in test [3] and 479 in test [4].
`O=C1N(c2ccccc2)c2ccccc2C1(Cc1ccncc1)Cc1ccncc1` [Linopirdine] (top concentration 46.0829 µM): the values for the viability in test [1] and in test [2] were 57.2% and 5.06%, respectively. The “area under the dose-response curve” value in test [3] is 540; in test [4], 369.
The corresponding values for `C[C@]1(O)CC(C1)C2=NC(=C3[N]2C=CN=C3N)C4=CC5=C(C=C4)C=CC(=N5)C6=CC=CC=C6` (configuration not stated) [Linsitinib] (top concentration 46.0829 µM) are 35.1%, 31.5%, 448 and 475.
As for `COc1cccc(N(C)C(=S)Oc2ccc3c(c2)CCCC3)n1` [Liranaftate] (top concentration 46.0829 µM), the values for the viability in test [1] and in test [2] were 73.7% and 90.5%, respectively. Further, the “area under the dose-response curve” value was determined as 507 in test [3] and 517 in test [4].
The corresponding values for `C[S+](=O)([O-])Oc1ccc2c(NC(N)=O)c(C(=O)c3ccc(Cl)cc3Cl)oc2c1` [Lirimilast] (top concentration 46.0829 µM) are 8%, 66.1%, 424 and 461.
For `CCN1\C=C(C(O)=O)/C(=O)C2=C1C(=C(N3CCNC(C)C3)C(=C2)F)F` (configuration not stated) [Lomefloxacin hydrochloride] (top concentration 46.0829 µM) the same measures were 101%, 124%, 515 and 517.
On to `CC1CCC(C(=O)N(c2cc(C#CC(C)(C)C)sc2C(=O)O)C2CCC(O)CC2)CC1` (configuration not stated) [Lomibuvir] (top concentration 46.0829 µM), for which the viability in test [1] amounted to 27.4%; in test [2], 73.3%. The “area under the dose-response curve” value turned out to be 481 in test [3] and 408 in test [4].
The corresponding values for `O=NN(CCCl)C(=O)NC1CCCCC1` [Lomustine] (top concentration 46.0829 µM) are 70.4%, 125%, 513 and 551.
Turning to `NC(=O)N1CCC(CC(=O)N2CCC([C@H]3c4ncc(Br)cc4CCc4cc(Cl)cc(Br)c43)CC2)CC1` [Lonafarnib] (top concentration 46.0829 µM), the viability in test [1] was -0.76%; in test [2] it was 0.687%. Besides, the entries for the “area under the dose-response curve” value in test [3] and in test [4] were 406 and 518, respectively.
`O=C(O)c1nn(Cc2ccc(Cl)cc2Cl)c2ccccc12` [Lonidamine] (top concentration 46.0829 µM): the results for the viability in test [1] and in test [2] were 82.3% and 87.9%, respectively. In addition, the entries for the “area under the dose-response curve” value in test [3] and in test [4] were 461 and 443, respectively.
For `CN(C)C(=O)C(CCN1CCC(O)(c2ccc(Cl)cc2)CC1)(c1ccccc1)c1ccccc1` [Loperamide hydrochloride] (top concentration 46.0829 µM) the same measures were 70.5%, 5.88%, 525 and 450.
For `Cc1cccc(C)c1OCC(=O)N[C@@H](Cc1ccccc1)[C@@H](O)C[C@H](Cc1ccccc1)NC(=O)[C@H](C(C)C)N1CCCNC1=O` [Lopinavir] (top concentration 46.0829 µM) the same measures were 53.2%, 53.2%, 497 and 453.
For `CN1\C(=C(O)/C2=C(C=C(Cl)S2)[S+]1([O-])=O)C(=O)NC3=NC=CC=C3` [Lornoxicam] (top concentration 46.0829 µM) the same measures were 33.4%, 55.5%, 454 and 490.
Take `CCOC(=O)O[C@]1(C(=O)OCCl)CC[C@H]2[C@@H]3CCC4=CC(=O)C=C[C@]4(C)[C@H]3[C@@H](O)C[C@@]21C` [Loteprednol etabonate] (top concentration 46.0829 µM): the viability was determined as 110% in test [1] and 92.8% in test [2]. Moreover, the figures for the “area under the dose-response curve” value in test [3] and in test [4] were 520 and 493, respectively.

The values above are taken from the supplement of paper PMC5412046.
